In patent publication US11458132B2, “Quinolin-2(1H)-one inhibitors of Late SV40 Factor” (TRUSTEES OF BOSTON UNIVERSITY, priority 2020, dated 2022):

Molecular target: T1, LSF and β-catenin (Homo sapiens, UniProt Q12800)
T1 construct: In both these cell lines, LSF co-immunoprecipitated with β-catenin; endogenous in cells; host or cells: HT-29 and HCT-116
T1 sequence (Q12800 1-502): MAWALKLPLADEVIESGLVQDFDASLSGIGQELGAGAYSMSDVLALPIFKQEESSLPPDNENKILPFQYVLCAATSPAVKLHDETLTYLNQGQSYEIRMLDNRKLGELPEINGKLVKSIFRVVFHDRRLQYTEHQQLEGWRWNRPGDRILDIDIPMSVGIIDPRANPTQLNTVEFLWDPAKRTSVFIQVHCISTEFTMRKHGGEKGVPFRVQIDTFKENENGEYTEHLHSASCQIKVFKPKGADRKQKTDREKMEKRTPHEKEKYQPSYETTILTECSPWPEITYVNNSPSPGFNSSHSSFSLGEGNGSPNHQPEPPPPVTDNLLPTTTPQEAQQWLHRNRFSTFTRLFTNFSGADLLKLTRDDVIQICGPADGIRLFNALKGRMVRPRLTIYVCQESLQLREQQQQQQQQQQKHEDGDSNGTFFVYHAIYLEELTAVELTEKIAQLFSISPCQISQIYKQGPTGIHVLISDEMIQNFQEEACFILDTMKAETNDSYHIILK
Assay: Immunoprecipitation of β-catenin probed for LSF in CRC cells
Format: cell-based
Details: 1 μM, 16 hours, HT-29 and HCT-116 cells
Excerpt: Immunoprecipitation: The CRC cells were harvested. Proteins of interest were immunoprecipitated using the indicated antibodies at 1:100 concentration. The eluents were resolved by SDS polyacrylamide gel electrophoresis and probed with the indicated antibodies. All the antibodies for immunoblot and immunoprecipitation were acquired from Cell Signaling and were used at the recommended concentrations.

In the case of `CCOc1cc(N(C)C)ccc1-c1cc(=O)[nH]c2cc3c(cc12)OCO3` [FQI2-34, 8-(4-(dimethylamino)-2-ethoxyphenyl)-[1,3]dioxolo[4,5-g]quinolin-6(5H)-one], the “interaction of LSF and β-catenin (co-immunoprecipitation)” value is reported as “consistently reduced this interaction”.
